According to patent publication EP0097633B1, “Determination of the sensitivity of virus to antiviral agents” (Wahren, Britta, priority 1982, dated 1984):
Read-outs that look alike come from different tables or passages of the source.

Assays:
[1] = test system: virus isolate from an eye IDU treated with without result; assay: VSA on a virus isolate from an eye treated with IDU without result (Example 3); type: cell-based
Description: (§1) Sterile plastic plates comprising 24 wells, each having a culture surface of 2.5 cm^2 and containing about 5 x 10^5 HL-cells/well were inoculated with 0.1 ml of virus dilutions as above. Such of the above virus dilutions only containing a small amount of virus are first cultured for 3 days in HL-cells, on which virus replicates, after which the virus isolate from one cell passage is taken out, is diluted 1:30 and 0.1 ml of the dilutions is added to the plates as indicated above. The cells are then incubated at a temperature of 32-37°C, with addition of different antiviral agents, and without any addition of antiviral agent to obtain reference values. Each antiviral agent is added in a dilution series comprising six different concentrations (Cl-C6), some of which correspond to desired serum concentrations for the treatment of patients. In table 1 is indicated the antiviral agents and concentrations thereof used.
(§2) The supernatant is sucked off and in order to achieve cell disrupture 800 µl of distilled water are added to the cells on the plates. The plates are frozen at -20°C and after some time sufficient for formation of ice crystals (about 15 min) the plates are thawed to room temperature for measurement of virus antigen. If desired, the plates can be preserved in a frozen state for a long time before they are thawed in order to carry out the measurement of virus antigen. When the plates have thawed 200 µl of NaCI of 4.5% are added to the cells in order to obtain an isotonic solution.
(§3) The amount of virus antigen formed is thereafter determined as follows. Guinea pig anti-HSV-serum is diluted in 0.1-M sodium carbonate buffer. 0.1 ml of the serum dilution is filled per well in microplates (M 29 AR, Dynatech, Zug, Switzerland) which have been washed three times with NaCI-solution of 0.9% containing 0.05% of Tween® 20, after which the plates are incubated for 16 hours at room temperature. The plates can be preserved sealed with their contents at +4°C up to 2-3 months.
(§4) 0.1 ml of the cell material obtained above or a known virus antigen is filled into plates treated with antibody and is incubated for 4 hours at +4°C. After washing with the washing solution indicated above 0.1 ml of rabbit anti-HSV is added and the plates are incubated for 2 hours at +37°C. The plates are washed and 0.1 ml of conjugate is added, after which they are incubated for 2 hours at +37°C. The conjugate consists of pig anti-rabbit IgG conjugated with alkaline phosphatase (Orion Diagnostica, Helsinki, Finland) in a dilution of 1:100. Non-bonded conjugate is washed off before 100 pl of the substrate p-nitrophenyl phosphate (1 mg/ml, Sigma, St Louis, MO, USA) are added. For dilution of the substrate 1 M diethanol buffer, pH 9.8 containing 0.5 x 10-^3 M MgC12 is used and for dilution of antisera and conjugate phosphate buffer (PBS), pH 7.3-7.4 with 0.5% of Tween® 20, 0.5% of BSA (bovine serum albumin) and 0.02% of NaN3 is used. The reaction is stopped after 20-60 min with 0.025 ml of 5 M NaOH. The absorbance (A) is thereafter read at 405 nm with Titertek Multiskan® (Flow Laboratories, Irvine, Scotland).

HSV = assay: Virus sensitivity assay (VSA): HSV patient material replicated in HL-cells with antiviral agent, cell disruption, virus antigen by ELISA sandwich technique (Example 1); type: cell-based, herpes simplex virus (HSV); conditions: for absorbance (A) at 405 nm: disrupted cells, culture of 1 to 3 days; for sensitivity of the investigated HSV to the antiviral agent: read from Fig. 1
Description: A material from a patient containing living HSV is mixed with a small amount of Eagle's tissue culture medium containing 2% of calf serum, 100 IE penicillin/ml and 100 […] of streptomycin/ml, after which the virus mixture is diluted 1:30 in this medium.
as §1
As a background control of virus replication taking place and for a direct typing of virus 2 cell containing wells/plate are inoculated with a mixture of 0.1 ml virus dilution and 0.05 ml of Brij-58 of 1%.
After a culture of 1 to 3 days the effect of the antiviral agents is then evaluated by measurement with ELISA sandwich technique as described below. However, the cells are treated in the following way before this measurement.
as §2
as §3, with “months. The optimal antibody concentration has been determined by antibody titration with the respective antigen and control antigen.” for “months.”
as §4, with “Scotland). […]” for “Scotland).”

[2] = cited from earlier work
HSV-1 = assay: VSA on HL-cells infected with HSV-1, virus antigen measured in supernatant and in cells disrupted with distilled water (Example 2); type: cell-based; conditions: for Absorbance values at 405 nm: 3 days
Description: as §1, §2
as §3, with “months. The optimal antibody concentration has been determined by antibody titration with the respective antigen and control antigen.” for “months.”
as §4, with “Scotland). Absorbance values then obtained at the concentrations C1―C6 of the antiviral agents from table 1 and at the concentration Co = O are indicated in the following table 2.” for “Scotland).”
HL-cells infected with HSV-1 were incubated in the same way as in example 1 in the presence of Ara-A and IDU in the concentrations indicated in table 1 for 3 days. Reference culture without addition of antiviral agent was also carried out. The virus antigen in the supernatant (---) and in cells disrupted with distilled water (-) was thereafter measured in the same way as in example 1, and the results are found in table 3 and Fig. 2.

[3] = C1: Ara-A 5, ACV 0.15, PFA 25, IDU 0.5 μM, C0 (no agent) 1.605
[4] = C2: Ara-A 10, ACV 0.31, PFA 50, IDU 1 μM, C0 1.605
[5] = C3: Ara-A 20, ACV 0.63, PFA 100, IDU 2 μM, C0 1.605
[6] = C4: Ara-A 40, ACV 1.25, PFA 200, IDU 4 μM, C0 1.605
[7] = C5: Ara-A 80, ACV 2.5, PFA 400, IDU 8 μM, C0 1.605
[8] = C6: Ara-A 160, ACV 5, PFA 800, IDU 16 μM, C0 1.605
[9] = C1: Ara-A 5, ACV 0.15, PFA 25, IDU 0.5 μM, C0 (no agent) 1.425
[10] = C2: Ara-A 10, ACV 0.31, PFA 50, IDU 1 μM, C0 1.425
[11] = C3: Ara-A 20, ACV 0.63, PFA 100, IDU 2 μM, C0 1.425
[12] = C4: Ara-A 40, ACV 1.25, PFA 200, IDU 4 μM, C0 1.425
[13] = C5: Ara-A 80, ACV 2.5, PFA 400, IDU 8 μM, C0 1.425
[14] = C6: Ara-A 160, ACV 5, PFA 800, IDU 16 μM, C0 1.425
[15] = cells disrupted with distilled water, C1: Ara-A 5, IDU 0.5 μM
[16] = cells disrupted with distilled water, C2: Ara-A 10, IDU 1 μM
[17] = cells disrupted with distilled water, C3: Ara-A 20, IDU 2 μM
[18] = cells disrupted with distilled water, C4: Ara-A 40, IDU 4 μM
[19] = cells disrupted with distilled water, C5: Ara-A 80, IDU 8 μM
[20] = cells disrupted with distilled water, C6: Ara-A 160, IDU 16 μM
[21] = supernatant, C1: Ara-A 5, IDU 0.5 μM
[22] = supernatant, C2: Ara-A 10, IDU 1 μM
[23] = supernatant, C3: Ara-A 20, IDU 2 μM
[24] = supernatant, C4: Ara-A 40, IDU 4 μM
[25] = supernatant, C5: Ara-A 80, IDU 8 μM
[26] = supernatant, C6: Ara-A 160, IDU 16 μM

Structure (SMILES) | adsorbance values [1, 3] | adsorbance values [1, 4] | adsorbance values [1, 5] | adsorbance values [1, 6] | adsorbance values [1, 7] | adsorbance values [1, 8] | absorbance (A) at 405 nm (HSV; [9]) | absorbance (A) at 405 nm (HSV; [10]) | absorbance (A) at 405 nm (HSV; [11]) | absorbance (A) at 405 nm (HSV; [12]) | absorbance (A) at 405 nm (HSV; [13]) | absorbance (A) at 405 nm (HSV; [14]) | sensitivity of the investigated HSV to the antiviral agent (HSV) | Absorbance values at 405 nm (HSV-1; [15]) | Absorbance values at 405 nm (HSV-1; [16]) | Absorbance values at 405 nm (HSV-1; [17]) | Absorbance values at 405 nm (HSV-1; [18]) | Absorbance values at 405 nm (HSV-1; [19]) | Absorbance values at 405 nm (HSV-1; [20]) | Absorbance values at 405 nm (HSV-1; [21]) | further results
Nc1nc2c(ncn2COCCO)c(=O)[nH]1 [ACV, acyclovir] | 1.608 | 1.615 | 1.594 | 1.179 | 1.475 | 1.415 | 1.382 | 1.135 | 0.958 | 0.810 | 0.547 | 0.361 | high sensitivity | – | – | – | – | – | – | – | –
O=C(O)P(=O)(O)O [PFA, phosphonoformic acid] | 1.487 | 1.502 | 0.656 | 0.216 | 0.092 | 0.083 | 1.437 | 1.391 | 1.346 | 1.321 | 0.893 | 0.310 | a lower one | – | – | – | – | – | – | – | Serum concentrations used clinically ([2]; serum, desired concentrations for the treatment of patients): 100 μM or IU/ml
O=c1[nH]c(=O)n([C@H]2C[C@H](O)[C@@H](CO)O2)cc1I [IDU, iododeoxyuridine] | 1.207 | 1.165 | 0.951 | 0.739 | 0.706 | 0.502 | 1.011 | 0.847 | 0.671 | 0.536 | 0.344 | 0.298 | – | 1.130 ± 0.052 | 1.075 ± 0.054 | 0.863 ± 0.030 | 0.513 ± 0.025 | 0.142 ± 0.009 | 0.119 | 0.320 ± 0.037 | Serum concentrations used clinically ([2]; concentrations are measured in lachrymal fluid): 4—400^1 μM or IU/ml; Absorbance values at 405 nm (HSV-1; [22]): 0.259 ± 0.005; Absorbance values at 405 nm (HSV-1; [23]): 0.201 ± 0.025; Absorbance values at 405 nm (HSV-1; [24]): 0.142 ± 0.019; Absorbance values at 405 nm (HSV-1; [25]): 0.091 ± 0.017; Absorbance values at 405 nm (HSV-1; [26]): 0.143
Nc1ncnc2c1ncn2C1OC(CO)C(O)C1O (centres unmarked) [Ara-A, adenosine-arabinoside] | 1.572 | 1.482 | 0.750 | 0.155 | 0.071 | 0.039 | 1.505 | 1.132 | 1.017 | 0.892 | 0.520 | 0.473 | – | 1.130 ± 0.052 | 1.073 ± 0.054 | 0.863 ± 0.030 | 0.513 ± 0.025 | 0.142 ± 0.009 | 0.119 | 0.384 ± 0.025 | 50% of inhibition of antigen formation in the cells (HSV-1; read from Fig. 2, disrupted cells): in clinically relevant concentrations; Absorbance values at 405 nm (HSV-1; [22]): 0.323 ± 0.010; Absorbance values at 405 nm (HSV-1; [23]): 0.276 ± 0.006; Absorbance values at 405 nm (HSV-1; [24]): 0.184 ± 0.009; Absorbance values at 405 nm (HSV-1; [25]): 0.099 ± 0.006; Absorbance values at 405 nm (HSV-1; [26]): 0.099
